# From BindingDB's records for doi:10.1016/j.bmc.2011.01.052 (Kinki University, 2011)
# Assay: Inhibition of rat intestinal maltase
row,Structure (SMILES),IC50
1,"OC[C@@H]1[C@@H](O)[C@H](O)C[S@+]1C[C@@H](O)[C@H](O)[C@H](O)[C@@H](O)CO [1,4-Dideoxy-1,4-{(R)-[(2S,3R,4R,5S)-2,3,4,5,6-pentahydroxyhexyl]episulfoniumylidene}-D-arabinitol chloride]",1.3 µM
2,"OC[C@@H]1[C@@H](O)[C@H](O)C[S@+]1C[C@@H](O)[C@@H](O)[C@H](O)[C@@H](O)CO [(1R,2R,3S,4S)-3,4-dihydroxy-2-(hydroxymethyl)-1-((2S,3S,4R,5S)-2,3,4,5,6-pentahydroxyhexyl)tetrahydro-1H-thiophenium chloride]",5.1 µM
3,"OC[C@@H]1[C@@H](O)[C@H](O)C[S@+]1C[C@@H](O)[C@@H](O)[C@H](O)[C@H](O)[C@@H](O)CO [(2R,3S,4S)-1-[(2S,3S,4R,5R,6S)-2,3,4,5,6,7-hexahydroxyheptyl]-3,4-dihydroxy-2-(hydroxymethyl)tetrahydrothiophenium (non-preferred name)]",4.8 µM
4,OC[C@H](O)C[S@@+]1C[C@@H](O)[C@H](O)[C@H]1CO [Neosalaprinol],> 384 µM

# Continued by falling IC50, values first:
row,IC50,Structure (SMILES)
1,105 µM,"OC[C@@H](O)C[S@@+]1C[C@@H](O)[C@H](O)[C@H]1CO [1,4-dideoxy-1,4-{(R)-[(2S)-2,3-dihydro-xypropyl]episulfoniumylidene}-D-arabinitol Chloride]"
2,4.3 µM,"OC[C@@H](O)[C@@H](O)[C@H](O)[C@H](O)C[S@@+]1C[C@@H](O)[C@H](O)[C@H]1CO [(1R,2R,3S,4S)-3,4-dihydroxy-2-(hydroxymethyl)-1-((2S,3S,4R,5R)-2,3,4,5,6-pentahydroxyhexyl)tetrahydro-1H-thiophenium chloride]"
3,3.2 µM,O=S(=O)([O-])O[C@@H]([C@H](O)[C@@H](O)CO)[C@H](O)C[S@@+]1C[C@@H](O)[C@H](O)[C@H]1CO [ponkoranol]
